Results reported in the NIST ThermoML archive (doi:10.1021/acs.jced.7b00581).

Conditions: 100 kPa, Liquid; for speed of sound: Single path-length method; for mass density: Vibrating tube method

CCCO [propan-1-ol]
Conditions | mass density [kg/m3] | speed of sound [m/s]
288.15 K | 807.834 | 1242.3
298.15 K | 799.597 | 1205.3
308.15 K | 791.399 | 1170.4
318.15 K | 783.121 | 1137.3
